Test results as given in patent US20260373248A1, “DEGRADABLE PEPTOIDS” (Medici Therapeutics, Inc., priority 2023, published 2026).
Non-standard residues stand in square brackets, D forms with d. Residues, ends and D or L forms follow the SMILES beside them. *: point of attachment. Gly(N-(3-decanoyloxypropyl)) = CCCCCCCCCC(=O)OCCCNCC(=O)O; N(3-lauroyloxypropyl)Gly = CCCCCCCCCCCC(=O)OCCCNCC(=O)O; Gly(N-(CH2)3O-octanoyl) = CCCCCCCC(=O)OCCCNCC(=O)O; Gly(N-3-morpholinopropyl) = O=C(O)CNCCCN1CCOCC1; N(2-ethylhexyl)Gly = CCCCC(CC)CNCC(=O)O; N(CH(CH2OH)2)Gly = O=C(O)CNC(CO)CO; NDecylGly = CCCCCCCCCCNCC(=O)O; NHexGly = CCCCCCNCC(=O)O; For = O=C*

How the values were obtained:
[1] = Delivery vehicle size and polydispersity by dynamic light scattering; assay type: physicochemical
Outline: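 LNPs made by microfluidic mixing of ethanolic peptoid/DSPC/cholesterol/DMG-PEG2000 (20:1.79:7.16:1.84 by weight) with mRNA in 10 mM citrate pH 5.0 at 1:3 by volume, then dialyzed overnight at 4 °C against tris-sucrose pH 7.4. Size and PDI read by dynamic light scattering in PBS.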

mRNA = mRNA encapsulation (modified Quant-iT RiboGreen assay); assay type: physicochemical; conditions: for mean percent encapsulation of RNA: RiboGreen, without vs with Triton X-100; for % Encapsulation: mRNA
Outline: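 Peptoid nanoparticles were incubated with Triton X-100 for 10 min to release entrapped mRNA, then mixed with RiboGreen reagent and read by fluorescence (ex 485 nm/em 530 nm). Percent encapsulation was derived from the ratio of fluorescence without versus with Triton X-100.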

firefly luciferase = assay: In vivo firefly luciferase expression after intravenous injection of fLuc mRNA delivery vehicles (IVIS imaging); set-up: species or system female Balb/c mice; conditions: for Total Flux: mice, 2.5 ug fLuc mRNA intravenously, 6 hours post-injection; for Total Flux (luciferase expression): fLuc mRNA, intravenous, Balb/c mice
Outline: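 Female Balb/c mice (6-8 weeks) given 2.5 ug fLuc mRNA in Nutshells IV. At 6 hours, IP D-luciferin (30 mg/mL, 10 μL/g) under isoflurane; IVIS imaging 10 minutes later, then harvested organs imaged ex vivo. Read-out: total photon flux in regions of interest.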

hEPO = assay: Quantification of hEPO in serum after IV injection of mRNA (Human EPO ELISA); assay type: in vivo; conditions: Balb/c mice, 2.5 μg mRNA IV, serum after 6 hours
Outline: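 Balb/c mice received 2.5 μg mRNA encoding human EPO by IV injection; serum was collected after 6 hours. hEPO was measured by sandwich ELISA (biotin-conjugate, streptavidin-HRP, TMB, A450) against kit standards (mIU/mL) and an external standard (ng/mL), with values interpolated and corrected for dilution.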

[2] = Peptoid quantity remaining in liver by HPLC-TOF mass spectrometry; assay type: in vivo; conditions: liver homogenate
Outline: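 Whole liver weighed; 20 mg tissue bead-homogenized in IPA/MeOH (8/2) with internal standard, centrifuged, supernatant run on BEH C8 HPLC-TOF MS. Peptoid concentration derived from linear calibration curve (0.2-50 μg/g) prepared in spiked untreated liver.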

luciferase = assay: Luciferase expression after local (intramuscular or subcutaneous) administration of mRNA; assay type: in vivo; conditions: mRNA 0.01 mpk, 6 hours; for IM Flux: intramuscular; for SC Flux: subcutaneous
Outline: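 Female Balb/c mice (6-8 weeks) received fLuc mRNA in aminolipidated peptoid Nutshells at 0.01 mpk subcutaneously or intramuscularly, or 0.1 mpk intratumorally. At 6 hours, anesthetized mice were given D-luciferin IP and imaged 10 minutes later; harvested organs were also imaged and total photon flux quantified in regions of interest.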

[3] = DLS in PBS, peptoid:DSPC:Cholesterol:DMG-PEG2000 weight ratio 20:1.79:7.16:1.84, mRNA

CCCCCCCCCCCC(=O)OCCCN(CC(=O)N(CC(=O)N(CC(=O)N(CCCOC(=O)CCCCCCCCCCC)CC(=O)N(CC(N)=O)CC(CC)CCCC)CC(CC)CCCC)CC(CC)CCCC)C(=O)CN(CC(CC)CCCC)C(=O)CNC(CO)CO (centres unmarked) [Compound 6] (H-[N(CH(CH2OH)2)Gly][N(2-ethylhexyl)Gly][N(3-lauroyloxypropyl)Gly][N(2-ethylhexyl)Gly][N(2-ethylhexyl)Gly][N(3-lauroyloxypropyl)Gly][N(2-ethylhexyl)Gly]-NH2)
PDI [1, 3]: 0.125
Particle Size [1, 3]: 83.9 nm
mean percent encapsulation of RNA (mRNA): 77.1%
Total Flux (firefly luciferase): 1.67E+09 p/s
hEPO (hEPO): 245 ng/mL
% of injected dose remaining in liver [2]: 13.73%
IM Flux (luciferase): 1.22E+08 p/s
SC Flux (luciferase): 1.14E+08 p/s

CCCCCCCC(=O)OCCCN(CC(=O)N(CC(=O)N(CC(=O)N(CCCOC(=O)CCCCCCC)CC(=O)N(CC(N)=O)CC(CC)CCCC)CC(CC)CCCC)CC(CC)CCCC)C(=O)CN(CC(CC)CCCC)C(=O)CNC(CO)CO (centres unmarked) [Compound 4] (H-[N(CH(CH2OH)2)Gly][N(2-ethylhexyl)Gly][Gly(N-(CH2)3O-octanoyl)][N(2-ethylhexyl)Gly][N(2-ethylhexyl)Gly][Gly(N-(CH2)3O-octanoyl)][N(2-ethylhexyl)Gly]-NH2)
PDI [1, 3]: 0.113
Particle Size [1, 3]: 74.4 nm
mean percent encapsulation of RNA (mRNA): 94.6%
Total Flux (firefly luciferase): 4.33E+09 p/s
hEPO (hEPO): 291 ng/mL
% of injected dose remaining in liver [2]: 5.98%
IM Flux (luciferase): 5.26E+08 p/s
SC Flux (luciferase): 5.11E+08 p/s

CCCCCCCCCCCC(=O)OCCCN(CC(=O)N(CC(=O)N(CC(=O)N(CCCOC(=O)CCCCCCCCCCC)CC(=O)N(CC(N)=O)CC(CC)CCCC)CC(CC)CCCC)CC(CC)CCCC)C(=O)CN(CC(CC)CCCC)C(=O)CN(C=O)CCCN1CCOCC1 (centres unmarked) [Compound 64] (For-[Gly(N-3-morpholinopropyl)][N(2-ethylhexyl)Gly][N(3-lauroyloxypropyl)Gly][N(2-ethylhexyl)Gly][N(2-ethylhexyl)Gly][N(3-lauroyloxypropyl)Gly][N(2-ethylhexyl)Gly]-NH2)
PDI [1, 3]: 0.096
Particle Size [1, 3]: 77.8 nm
mean percent encapsulation of RNA (mRNA): 67.3%
Total Flux (firefly luciferase): 6.54E+08 p/s
hEPO (hEPO): 87 ng/mL
% of injected dose remaining in liver [2]: 5.30%
IM Flux (luciferase): 1.42E+08 p/s
SC Flux (luciferase): 1.33E+08 p/s

CCCCCCCCCCCC(=O)OCCCN(CC(N)=O)C(=O)CN(CC(CC)CCCC)C(=O)CN(CCCCCCCCCC)C(=O)CN(CC(CC)CCCC)C(=O)CN(CCCOC(=O)CCCCCCCCCCC)C(=O)CN(CC(CC)CCCC)C(=O)CNC(CO)CO (centres unmarked) [Compound 59] (H-[N(CH(CH2OH)2)Gly][N(2-ethylhexyl)Gly][N(3-lauroyloxypropyl)Gly][N(2-ethylhexyl)Gly][NDecylGly][N(2-ethylhexyl)Gly][N(3-lauroyloxypropyl)Gly]-NH2)
PDI [1, 3]: 0.106
Particle Size [1, 3]: 79.5 nm
mean percent encapsulation of RNA (mRNA): 95.2%
Total Flux (firefly luciferase): 6.47E+08 p/s
hEPO (hEPO): 112 ng/mL
% of injected dose remaining in liver [2]: −1.85%
IM Flux (luciferase): 6.35E+07 p/s
SC Flux (luciferase): 8.71E+08 p/s

CCCCCCCCCC(=O)OCCCN(CC(=O)N(CCCOC(=O)CCCCCCCCC)CC(=O)N(CCCCCC)CC(=O)N(CCCOC(=O)CCCCCCCCC)CC(=O)N(CCCOC(=O)CCCCCCCCC)CC(=O)N(CCCCCC)CC(N)=O)C(=O)CN(C=O)CCCN1CCOCC1 [Compound 108] (For-[Gly(N-3-morpholinopropyl)][Gly(N-(3-decanoyloxypropyl))][Gly(N-(3-decanoyloxypropyl))][NHexGly][Gly(N-(3-decanoyloxypropyl))][Gly(N-(3-decanoyloxypropyl))][NHexGly]-NH2)
PDI [1, 3]: 0.263
Particle Size [1, 3]: 96.7 nm
Particle Size ([1]; formulation recipe F2): 95.3 nm
mean percent encapsulation of RNA (mRNA): 49.9%
% Encapsulation (mRNA; formulation recipe F2): 60.1%
Total Flux (luciferase expression) (firefly luciferase; formulation recipe F2): 1.47E+09 p/s
Total Flux (firefly luciferase): 4.91E+09 p/s
hEPO (hEPO): 377 ng/mL
% of injected dose remaining in liver [2]: 7.35%
IM Flux (luciferase): 1.25E+08 p/s
SC Flux (luciferase): 1.74E+08 p/s

CCCCCCCCCCCC(=O)OCCCN(CC(=O)N(CC(N)=O)CC(CC)CCCC)C(=O)CN(CCCCCC)C(=O)CN(CC(CC)CCCC)C(=O)CN(CCCOC(=O)CCCCCCCCCCC)C(=O)CN(CCCCCC)C(=O)CNC(CO)CO (centres unmarked) [Compound 54] (H-[N(CH(CH2OH)2)Gly][NHexGly][N(3-lauroyloxypropyl)Gly][N(2-ethylhexyl)Gly][NHexGly][N(3-lauroyloxypropyl)Gly][N(2-ethylhexyl)Gly]-NH2)
PDI [1, 3]: 0.141
Particle Size [1, 3]: 126.1 nm
mean percent encapsulation of RNA (mRNA): 33.5%
Total Flux (firefly luciferase): 3.53E+08 p/s
hEPO (hEPO): 37.4 ng/mL
% of injected dose remaining in liver [2]: 8.64%
IM Flux (luciferase): 1.52E+07 p/s
SC Flux (luciferase): 2.18E+07 p/s

CCCCCCCCCCCC(=O)OCCCN(CC(=O)N(CC(=O)N(CCCN1CCOCC1)CC(=O)N(CC(=O)N(CCCOC(=O)CCCCCCCCCCC)CC(=O)N(CC(N)=O)CC(CC)CCCC)CC(CC)CCCC)CC(CC)CCCC)C(=O)CN(C=O)CC(CC)CCCC (centres unmarked) [Compound 80] (For-[N(2-ethylhexyl)Gly][N(3-lauroyloxypropyl)Gly][N(2-ethylhexyl)Gly][Gly(N-3-morpholinopropyl)][N(2-ethylhexyl)Gly][N(3-lauroyloxypropyl)Gly][N(2-ethylhexyl)Gly]-NH2)
PDI [1, 3]: 0.109
Particle Size [1, 3]: 78.1 nm
Particle Size ([1]; formulation recipe D22): 78.1 nm
Particle Size ([1]; formulation recipe O1): 68.2 nm
Particle Size ([1]; formulation recipe O5): 68.5 nm
mean percent encapsulation of RNA (mRNA): 65.7%
% Encapsulation (mRNA; formulation recipe D22): 65.7%
% Encapsulation (mRNA; formulation recipe O1): 80.5%
% Encapsulation (mRNA; formulation recipe O5): 82.6%
Total Flux (luciferase expression) (firefly luciferase; formulation recipe D22): 3.74E+09 p/s
Total Flux (luciferase expression) (firefly luciferase; formulation recipe O1): 2.74E+09 p/s
Total Flux (luciferase expression) (firefly luciferase; formulation recipe O5): 2.71E+09 p/s
Total Flux (firefly luciferase): 3.74E+09 p/s
hEPO (hEPO): 481 ng/mL
% of injected dose remaining in liver [2]: 13.58%
IM Flux (luciferase): 2.20E+08 p/s
SC Flux (luciferase): 4.16E+08 p/s
